According to patent US7655677B2, “Composition and method for controlling house insect pest” (priority 2002, dated 2010):

Experiments:
Type in all cases: in vivo
Reticulitermes speratus [1] = assay: Test Example 9: treated filter paper in acrylic cup, termite mortality 5 and 20 days later; conditions: 1000 ppm
Protocol: (§1) A filter paper having a diameter of 80 mm was placed in a cylindrical cup made of acrylic resin having a diameter of 80 mm and a height of 60 mm (i.e. a cup having a hole with a diameter of 10 mm formed in the bottom and having hard plaster (Dental Stone) set at the bottom in a thickness of 10 mm), and 1 ml of a solution containing a sample compound in a predetermined concentration, was dropped thereon. Then, ten termite workers and one termite soldier (Reticulitermes speratus) were released thereon. The cup was placed in a container having wet cotton laid over the bottom, and the container was maintained at room temperature of 25° C., and 5 days later and 20 days later, the mortality of termites in the cup was examined.

Priplaneta americana = assay: Test Example 12: mouse feed poison bait, mortality with time; conditions: bait 1%
Protocol: 1 g of feeding stuff for mice was treated with 0.5 ml of an acetone solution containing 10 mg of a sample compound and put in a constant temperature chamber at 40° C. for 20 hours to sufficiently evaporate acetone, whereby a poison bait chemical containing 1% of the sample compound was prepared. Then, this poison bait chemical was put into a cup together with a wet cotton, and 10 […] (Priplaneta americana) were released and kept at 25° C. in a breeding room, whereby the mortality was examined as the time passed.

Reticulitermes speratus [2] = assay: Test Example 2: treated filter paper in Petri dish, termite mortality after 17 days; conditions: 408 h
Protocol: (§2) Mortality (%)=(Number of dead termite workers/15 termite workers)×100
(§3) Further, by the Colby's formula, the theoretical value (%) of mortality can be calculated. In a case where the actual mortality (%) is higher than the theoretical value (%), it can be said that the composition of the present invention has a synergistic effect for controlling the house insect pest.
(§4) A filter paper having a diameter of 80 mm was placed in a plastic Petri dish, and 1 ml of a pesticide solution having a predetermined concentration, was dropped thereon. After the treatment, the solvent was sufficiently evaporated and then, 1 ml of distilled water was impregnated to the treated filter paper, whereupon 15 termite workers and one termite soldier (Reticulitermes speratus) were released. The plastic Petri dish was placed in a container having wet cotton laid over the bottom, and the container was maintained at 25° C. for 17 days. Then, the number of dead termites in the Petri dish was examined, and the mortality was calculated in the same manner as in Test Example 1.

Coptotermes formosanus [3] = assay: Test Example 24: treated filter paper in Petri dish, termite mortality on 21st or 28th day
Protocol: as §2, §3
A filter paper having a diameter of 80 mm was placed in a plastic Petri dish, and 1 ml of a pesticide solution having a predetermined concentration was dropped thereon, whereupon 10 termite workers (Coptotermes formosanus) were released, and a cover was put on the Petri dish. This plastic Petri dish was put in a container having wet cotton laid over the bottom and maintained at room temperature of 25° C. On 21 or 28th day after the treatment, the number of dead termites in the Petri dish was examined, and the mortality was calculated in the same manner as Test Example 1.

Reticulitermes speratus [4] = assay: Test Example 1: treated filter paper in Petri dish, termite mortality after 13 days; conditions: 312 h
Protocol: as §4, with “predetermined concentration” for “predetermined concentration,”, “sufficiently evaporated,” for “sufficiently evaporated”, “for 13 days, whereupon” for “for 17 days. Then,”, “calculated by” for “calculated in”, “the following formula.” for “the same manner as in Test Example 1.”
as §2, §3

Reticulitermes speratus [5] = assay: Test Example 3: treated filter paper in Petri dish, termite mortality after 37 days; conditions: Reticulitermes speratus, 888 h
Protocol: as §2, §3
as §4, with “evaporated,” for “evaporated”, “10” for “15”, “workers” for “workers and one termite soldier”, “37 days, whereupon” for “17 days. Then,”

Reticulitermes speratus [6] = assay: Test Example 6: treated filter paper in acrylic cup, termite mortality after 7 days; conditions: 168 h
Protocol: as §1, with “C. for 7 days, whereupon” for “C., and 5 days later and 20 days later,”

Coptotermes formosanus [7] = assay: Test Example 5: treated filter paper in acrylic cup, termite mortality after 7 days; conditions: 168 h
Protocol: as §1, with “nine” for “ten”, “(Coptotermes formosanus)” for “(Reticulitermes speratus)”, “C. for 7 days, whereupon” for “C., and 5 days later and 20 days later,”

Lasius japonicus = assay: Test Example 11: powdered skim milk poison bait, controlling effect on ants 4 days later; conditions: bait concentration 1%
Protocol: 1 g of powdered skim milk was treated with 1 ml of an acetone solution containing 10 mg of a sample compound and put in a constant temperature chamber at 40° C. for 20 hours to sufficiently evaporate acetone. In this manner, a poison bait chemical containing 1% of an active ingredient compound, was prepared. Then, this poison bait chemical was put into a cup together with a wet cotton, and 15 ants (Lasius japonicus) were released. 4 Days later, the mortality was examined. Here, when the mortality 4 days later was at least 40%, the controlling effect was rated to be positive.

Question: What does the source list for CCOC(=O)NN=C(Cc1ccc(C(F)(F)F)cc1)c1ccc(Cl)cc1 [Compound No. II-3]?
Answer: Mortality (Reticulitermes speratus [1]; 5 Days later): 0%; Mortality (Reticulitermes speratus [1]; 20 Days later): 100%; Mortality (Priplaneta americana; 1 Day later): 0%; Mortality (Priplaneta americana; 8 Days later): 100%; Mortality (Priplaneta americana; 48 Days later): 100%

Question: For O=C(NC(=O)c1c(F)cccc1F)Nc1cc(Cl)c(OC(F)(F)C(F)F)c(Cl)c1 [Hexaflumuron], which mortality at 1000 ppm (Reticulitermes speratus [2]) is on record?
Answer: 40%

Question: And the mortality at 2000 ppm (Reticulitermes speratus [2])?
Answer: 40%

Question: And the mortality at 4000 ppm (Reticulitermes speratus [2])?
Answer: 20%

Question: What about the mortality at 8000 ppm (Reticulitermes speratus [2]) of the same compound?
Answer: 33%

Question: What does the source list for O=C(NC(=O)c1c(F)cccc1F)Nc1cc(Cl)c(Oc2ncc(C(F)(F)F)cc2Cl)c(Cl)c1 [Chlorfluazuron]?
Answer: mortality at 500 ppm (Coptotermes formosanus [3]; Coptotermes formosanus): 20%; mortality at 1000 ppm (Coptotermes formosanus [3]; Coptotermes formosanus): 30%; mortality at 2000 ppm (Coptotermes formosanus [3]; Coptotermes formosanus): 30%; mortality at 1000 ppm (Reticulitermes speratus [4]): 0%; mortality at 2000 ppm (Reticulitermes speratus [4]): 33%; mortality at 4000 ppm (Reticulitermes speratus [4]): 53%; mortality at 8000 ppm (Reticulitermes speratus [4]): 60%; mortality at 500 ppm (Reticulitermes speratus [5]; Chlorfluazuron 500 ppm alone): 30%; mortality at 1000 ppm (Reticulitermes speratus [5]; Chlorfluazuron 1000 ppm alone): 50%; mortality at 2000 ppm (Reticulitermes speratus [5]; Chlorfluazuron 2000 ppm alone): 50%; mortality at 4000 ppm (Reticulitermes speratus [5]; Chlorfluazuron 4000 ppm alone): 50%

Question: For CCOP(=S)(OCC)Oc1nc(Cl)c(Cl)cc1Cl [Chlorpyrifos, reference compound], which mortality at 1000 ppm (Reticulitermes speratus [6]) is on record?
Answer: 100%

Question: And the mortality at 500 ppm (Coptotermes formosanus [7])?
Answer: 100%

Question: And the mortality at 1000 ppm (Coptotermes formosanus [7])?
Answer: 100%

Question: And the Mortality (Priplaneta americana; 1 Day later)?
Answer: 100%

Question: And the Mortality (Priplaneta americana; 8 Days later)?
Answer: 100%

Question: And the Mortality (Priplaneta americana; 48 Days later)?
Answer: 100%

Question: Which results are given for CC(=NN=C(Cc1ccc(C(F)(F)F)cc1)c1ccc(Cl)cc1)N(C)C [Compound No. II-1, [4′-chloro-2-(4-trifluoromethylphenyl)acetophenone]N′-[1-(dimethylamino)ethylidene]hydrazone]?
Answer: Mortality (Reticulitermes speratus [1]; 5 Days later): 0%; Mortality (Reticulitermes speratus [1]; 20 Days later): 100%

Question: For Cc1c(COC(=O)[C@@H]2[C@H](/C=C(\Cl)C(F)(F)F)C2(C)C)cccc1-c1ccccc1 (racemic) [Bifenthrin], which Mortality (Coptotermes formosanus [3]; Bifenthrin 0.25 ppm alone, 28th day) is on record?
Answer: 0%

Question: What about the mortality at 0.25 ppm (Coptotermes formosanus [3]; Coptotermes formosanus) of the same compound?
Answer: 0%

Question: What about the mortality at 0.5 ppm (Coptotermes formosanus [3]; Coptotermes formosanus) of the same compound?
Answer: 10%

Question: And the mortality at 1 ppm (Coptotermes formosanus [3]; Coptotermes formosanus)?
Answer: 40%

Question: How did the Mortality (Reticulitermes speratus [1]; 5 Days later) turn out when CC(N)=NN=C(Cc1ccc(C(F)(F)F)cc1)c1ccc(Cl)cc1 [Compound No. II-7, [4′-chloro-2-(4-trifluoromethylphenyl)acetophenone]N′-[1-aminoethylidene]hydrazone] was run?
Answer: 100%

Question: What about the Mortality (Reticulitermes speratus [1]; 20 Days later) of the same compound?
Answer: 100%

Question: CC(=NN=C(Cc1ccc(C(C)(C)C)cc1)c1ccc(C)cc1)N(C)C [Compound No. II-6, [4′-methyl-2-(4-tert-butylphenyl)acetophenone]N′-[1-(dimethylamino)ethylidene]hydrazone] was tested. Which Mortality (Reticulitermes speratus [1]; 5 Days later) did it give?
Answer: 70%

Question: What about the Mortality (Reticulitermes speratus [1]; 20 Days later) of the same compound?
Answer: 100%

Question: What about the Controlling effect (Lasius japonicus) of the same compound?
Answer: Positive (when the mortality 4 days later was at least 40%, the controlling effect was rated to be positive)
